Experimental data reported in patent publication US10774084B2, “Adenine derivatives and their use as UV-photoprotective agents” (UNIVERZITA PALACKEHO V OLOMOUCI, priority 2015, dated 2020).
pIC50: −log10 of the molar value.

Key:
[1] = test system: Triticum aestivum cv. Hereward leaf segments; assay: Senescence bioassay on detached wheat leaf segments (chlorophyll retention); conditions: for maximum effective concentration: 96 h in the dark; for activity (%) [10^−4 mol · l^−1 BAP = 100%]: at maximum effective concentration
Description: Seeds of winter wheat, Triticum aestivum cv. Hereward, were washed under running water for 24 hours and then sown on vermiculite soaked with Knop's solution. They were placed in the growth chamber at 25° C. with a 16/8 h light period at […]. After 7 days, the first leaf was fully developed and the second leaf had started to grow. A tip section of the first leaf, approximately 35 mm long, was removed from 5 seedlings and trimmed slightly to a combined weight of 100 mg. The basal ends of the five leaf tips were placed in the wells of a microtiter polystyrene plate containing 150 μL of the tested derivative solution each. The entire plate was inserted into a plastic box lined with paper tissues soaked in distilled water to prevent leaf sections from drying out. After 96 h incubation in the dark at 25° C., the leaves were removed and chlorophyll extracted by heating at 80° C. for 10 min in 5 mL of 80% ethanol (v/v). The sample volume was then restored to 5 mL by the addition of 80% ethanol (v/v). The absorbance of the extract was recorded at 665 nm. In addition, chlorophyll extracts from fresh leaves and leaf tips incubated in deionised water were measured. The results are means of five replicates and the entire test was repeated twice. […] The compounds to be tested were dissolved in dimethylsulfoxide (DMSO) and the solution brought up to 10^−3 M with distilled water. […] The activity obtained for 10^−4 M of BAP was postulated as 100%. Kinetin was used as the second standard. Newly prepared compounds generally exceeded the efficiency of standard (BAP) by 10% of its activity (Tab. 5).

[2] = test system: BJ human fibroblast cells; assay: Calcein AM cytotoxicity assay; assay type: cell-based; conditions: 72 hrs
Description: (§1) One of the parameters used as the base for cytotoxic analysis is metabolic activity of viable cells. Microtiter assay, which uses the Calcein AM, is now widely used to quantify cell proliferation and cytotoxicity. The quantity of […] Calcein AM corresponds to the number of viable cells in culture. The cell lines of breast cancer (MCF-7), human erythromleukemia (K562), BJ human fibroblast cells (BJ) and human keratinocyte cell line (HaCaT) were used for routine screening of cytotoxicity of the compounds. The cells were maintened in Nunc/Corning 80 cm^2 plastic bottles and grown in media for cell culture (DMEM containing 5 g/l of glucose, 2 mM of glutamin, 100 U/ml of penicilin, 100 μg/ml of streptomycin, 10% of fetal bovine serum and sodium hydrogencarbonate). Cell suspensions were diluted according to cell types and according to expected final cell density (10^4 of cells per well according to characteristics of cell growth), pippeted 80 μl of cell suspension on 96-well microtiter plates. Innoculates were stabilized by 24 hrs preincubation at 37° C. in CO2. Particular concentrations of tested compounds were added in time zero as 20 μl aliquotto wells of microtiter plates. Usually, the compounds were diluted into six concentrations in four-fold dilution series. In routine testing, the highest well concentration was 166.7 μM, of change dependent on the substance. All drug concentrations were examined in duplicates. The incubation of cells with tested derivatives lasted 72 hrs at 37° C., 100% humidity and in the atmosphere of CO2. At the end of the incubation period, the cells were tested and analysed according to the addition of Calcein AM (Molecular probes) solution and the incubation lasted for next 1 hour. Fluorescence (FD) was measured using Labsystem FIA reader Fluorskan Ascent (Microsystems). The survival of tumor cells (The tumor cell survival-TCS) was counted according to equation: […](FDwell with derivative/FDcontrol well)×100%. The value of GI50, that is equal to the concentration of compound at which 50% of tumour cells are terminated. To evaluate the antitumor activity was tested toxicity of new derivatives on panel of cell lines of different histogenetic and species origin (Tab. 6, G150 concentration given in μM). […] Effective derivatives killed tumor cells in concentrations close to 0.1 to 50. None of the newly prepared compounds only reached the value.

HaCaT [3] = assay: Calcein AM cytotoxicity assay; assay type: cell-based; conditions: Homo sapiens, 72 hrs
Description: as §1

K562 = assay: Calcein AM cytotoxicity assay; assay type: cell-based; conditions: Homo sapiens, 72 hrs
Description: as §1

MCF-7 = assay: Calcein AM cytotoxicity assay; assay type: cell-based; conditions: Homo sapiens, MCF7, 72 hrs
Description: as §1

[4] = test system: Normal human dermal fibroblasts (NHDF); assay: In vitro UVA/UVB photoprotection test on NHDF (Example 9); assay type: cell-based
Description: Normal human dermal fibroblasts (NHDF) were used as an in vitro model. Cells were isolated from tissue specimens obtained from healthy patients undergoing plastic surgery at the Department of Plastic and Aesthetic Surgery (University Hospital Olomouc). The use of skin tissue was in accordance with the Ethics Committee of the University Hospital and Faculty of Medicine and Dentistry, Palacky University, Olomouc and all patients signed written informed consent. Fibroblasts were used between the 2nd and 4th passage. For all experiments the fibroblasts were seeded onto 96-well plates at a density of 0.8×10^5 cells/ml (0.2 ml per well) of cultivation medium (DMEM supplemented with fetal calf serum (10%, v/v), penicillin ([…]) and streptomycin (100 U/ml)). Test substances included compounds number 1, 3, 9, 15 and 20. Compounds were dissolved in DMSO and then diluted in serum free medium (DMEM supplemented with penicillin ([…]) and streptomycin (100 U/ml)). After 24 h incubation was cultivation medium changed to serum free medium containing test compound or DMSO (negative control). The final applied concentrations range was 3.9-31.3 μmol/ll. As a control serum free medium supplemented with appropriate concentration of DMSO (0.5%, v/v) was used. Rosmarinic acid was used as positive control. Each test compound was in parallel applied on two 96-well plates with NHDF. After 60 minutes incubation medium with test compound was discarded, cells were washed two-times with PBS and PBS supplemented with glucose (1 mg/ml) was applied. To study UVA photoprotection, a plate was exposed to a cytotoxic dose of UVA radiation (7.5 J/cm^2) using a solar simulator SOL 500 (Dr. Hoenle Technology, Germany) equipped with a H1 filter transmitting wavelengths of 320-400 nm. To study UVB photoprotection, a plate was exposed to a cytotoxic dose of UVB radiation (150 mJ/cm^2) using the solar simulator equipped with a H2 filter transmitting wavelengths of 295-320 nm. Intensity of UVA or UVB radiation was evaluated before each irradiation by UVA- or UVB-meter. Control (non-irradiated) plates were for the period of irradiation incubated in dark. After UVA or UVB exposure PBS with glucose was discarded and serum free medium was applied. After 24 hours (37° C., 5% CO2) cell damage was evaluated by neutral red (NR) incorporation into viable cells. Medium was discarded and NR solution (0.03% w/v, PBS) was applied. After 60 minutes NR solution was discarded, cells were fixed with a mixture of formaldehyde (0.5%, v/v) and CaCl2 (1%, m/v) in ratio 1:1 and then NR was dissolved in methanol (50%, v/v) with acetic acid (1%, v/v). After 5 minutes of intensive shaking absorbance was measured at 540 nm. Experiments were performed in four independent repetitions with use of cells from four donors to minimize individual sensitivity of donor cells. Photoprotective effect was evaluated by comparison of experimental data (absorbance) of test compounds with a positive control and a negative control (according to the following equation:
[formula] • As . . . absorbance of sample (cells pre-incubated with test compounds in serum free medium and irradiated) • Anc . . . absorbance of negative control (cells pre-incubated with s DMSO in serum free medium and non-irradiated=incubated in dark) • Apc . . . absorbance of positive control (cells pre-incubated with s DMSO in serum free medium and irradiated)

HaCaT [5] = assay: In vitro UVA/UVB photoprotection test on HaCaT; assay type: cell-based, human
Description: Spontaneously Immortalized Aneuploid Human Keratinocyte Cell Line (HaCaT) was bought from CLS (Eppeheim, Germany) and used as an in vitro model. For all experiments the keratinocytes were seeded onto 96-well plates at a density of 1.6×10^5 cells/ml (0.2 ml per well) of growth medium (DMEM supplemented with fetal bovine serum (10%), penicillin ([…]) and streptomycin (100 U/ml)).
Test substances included compounds number 3, 9, 15 and 20. Compounds were dissolved in DMSO and then diluted in serum free medium (DMEM supplemented penicillin ([…]) and streptomycin (100 U/ml)). After 24 h incubation was growth medium changed to serum free medium containing test compounds. The final applied concentration range was 3.9-31.25 μmol/l. As a control, serum free medium supplemented with appropriate concentration of DMSO (0.5%, v/v) was used. Rosmarinic acid was used as positive control. After 60 minutes incubation with test compounds medium was discarded, cells were washed two-times with PBS and PBS supplemented with glucose (1 mg/ml) was applied. To study UVA photoprotection, a plate was exposed to a cytotoxic dose of UVA radiation (10 J/cm2) using a solar simulator SOL 500 (Dr. Hoenle Technology, Germany) equipped with a H1 filter transmitting wavelengths of 320-400 nm. To study UVB photoprotection, a plate was exposed to a cytotoxic dose of UVB radiation (150 mJ/cm2) using the solar simulator equipped with a H2 filter transmitting wavelengths of 295-320 nm. Intensity of UVA or UVB radiation was evaluated before each irradiation by UVA- or UVB-meter. Control (non-irradiated) plates were for the period of irradiation incubated in dark. After UVA or UVB exposure PBS with glucose was discarded and serum free medium was applied. After 24 hours (37° C., 5% CO2) cell damage was evaluated by neutral red (NR) incorporation into viable cells. Medium was discarded and NR solution (0.03% w/v, PBS) was applied. After 60 minutes NR solution was discarded, cells were fixed with a mixture of formaldehyde (0.5%, v/v) and CaCl2 (1%, m/v) in ratio 1:1 and then NR was dissolved in methanol (50%, v/v) with acetic acid (1%, v/v).
After 5 minutes of intensive shaking absorbance was measured at 540 nm. Experiments were performed in four independent repetitions with use of […] to minimize individual sensitivity of donor cells. Photoprotective effect was evaluated by comparison of experimental data (absorbance) of test compounds with a positive control and a negative control (according to the following equation: […]
As . . . absorbance of sample (cells pre-incubated with test compounds in serum free medium and irradiated)
Anc . . . absorbance of negative control (cells pre-incubated with s DMSO in serum free medium and non-irradiated=incubated in dark)
Apc . . . absorbance of positive control (cells pre-incubated with s DMSO in serum free medium and irradiated)

[6] = test system: skin fibroblasts BJ and keratinocytes HaCaT; assay: MTT in vitro cytotoxicity test for skin cells; assay type: cell-based; conditions: Homo sapiens; 72 hour treatment; table does not say which cell line (BJ, HaCaT)
Description: MTT assay is a standard test of toxicity based on photometric measurement of the ability of metabolically active cells to reduce MTT (3-(4,5-dimethylthiazol-2-yl)-2,5-diphenyltetrazolium bromide). Using the assay, the effects of 72 hour treatments with several concentrations of the compounds (sixfold dilution, maximal concentration=50 microM) on viability of skin fibroblasts BJ and keratinocytes HaCaT were evaluated. About 5,000 cells were seeded per well of a 96-well plate 24 hours before the treatment. DMSO vehiculum was used as a negative control. After 72 hour treatment, new medium with MTT (Sigma, M2128) was added to a final concentration of 0.5 mg/ml. After 3 hours, medium was removed and resulting formazan in the cells was dissolved in DMSO. The absorbance was measured at 570 nm (640 nm reference wavelength). The IC50 values were calculated from the dose-response curves. 6-furfurylaminopurine riboside was used as positive controls.

## c1coc(CNc2ncnc3c2ncn3C2CCCO2)c1 (centres unmarked) [6-furfurylamino-9-(tetrahydrofuran-2-yl)purine]
[1]
  maximum effective concentration: 10^−4 mol · l^−1
  activity (%) [10^−4 mol · l^−1 BAP = 100%]: 114 ± 3%
[2]
  GI50: > 100 µM
HaCaT [3]
  GI50: > 100 µM
K562
  GI50: > 100 µM
MCF-7
  GI50: > 100 µM

## Cc1ccsc1CNc1ncnc2c1ncn2C1CCCO1 (centres unmarked) [Compound 10, 6-(3-methylthiophen-2-ylmethylamino)-9-(tetrahydrofuran-2-yl)purine]
[1]
  maximum effective concentration: 10^−4 mol · l^−1
  activity (%) [10^−4 mol · l^−1 BAP = 100%]: 110 ± 7%

## c1ccc(CNc2ncnc3nc[nH]c23)cc1 [BAP, 6-benzylaminopurine, reference compound]
[1]
  maximum effective concentration: 10^−4 mol · l^−1
  activity (%) [10^−4 mol · l^−1 BAP = 100%]: 100 ± 1%

## O=C(/C=C/c1ccc(O)c(O)c1)O[C@H](Cc1ccc(O)c(O)c1)C(=O)O [RA, rosmarinic acid, reference compound]
[4]; UVA 7.5 J/cm^2, 3.9 μmol/l
  Protection (%): 6.1%
[4]; UVA 7.5 J/cm^2, 7.8 μmol/l
  Protection (%): 14.7%
[4]; UVA 7.5 J/cm^2, 15.6 μmol/l
  Protection (%): 17.0%
[4]; UVA 7.5 J/cm^2, 31.3 μmol/l
  Protection (%): 19.3%
[4]; UVB 150 mJ/cm^2, 3.9 μmol/l
  Protection (%): 36.8%
[4]; UVB 150 mJ/cm^2, 7.8 μmol/l
  Protection (%): 50.9%
[4]; UVB 150 mJ/cm^2, 15.6 μmol/l
  Protection (%): 52.9%
[4]; UVB 150 mJ/cm^2, 31.3 μmol/l
  Protection (%): 67.7%
HaCaT [5]; Table 17: UVA-induced damage (10 J/cm2), 3.9 μmol/l
  Protection (%): 23.6%
HaCaT [5]; Table 17: UVA-induced damage (10 J/cm2), 7.8 μmol/l
  Protection (%): 42.3%
HaCaT [5]; Table 17: UVA-induced damage (10 J/cm2), 15.6 μmol/l
  Protection (%): 36.2%
HaCaT [5]; Table 17: UVA-induced damage (10 J/cm2), 31.3 μmol/l
  Protection (%): 44.0%
HaCaT [5]; Table 18: titled UVA-induced damage, 3.9 μmol/l
  Protection (%): 22%
HaCaT [5]; Table 18: titled UVA-induced damage, 7.8 μmol/l
  Protection (%): 48.5%
HaCaT [5]; Table 18: titled UVA-induced damage, 15.6 μmol/l
  Protection (%): 55.7%
HaCaT [5]; Table 18: titled UVA-induced damage, 31.3 μmol/l
  Protection (%): 54.3%

## OC[C@H]1OC(n2cnc3c(NCc4ccco4)ncnc32)[C@H](O)[C@@H]1O (some centres unmarked) [6-furfurylamino-9-ribosylpurine, reference compound]
[6]
  pIC50: ≥ 5.52

## c1coc(CNc2ncnc3nc[nH]c23)c1 [kinetin, 6-furfurylaminopurine, reference compound]
[1]
  maximum effective concentration: 10^−4 mol · l^−1
  activity (%) [10^−4 mol · l^−1 BAP = 100%]: 98 ± 4%
